In patent US20050209251A1, “Substituted pyrazolo-pyrimidine-4-ones” (priority 2002, published 2005):

Columns and labels:
weeds [1] = assay: Pre-emergence test (herbicidal action); format: in vivo; settings: soil sprayed 24 hours after sowing, rated after three weeks
Method: Pre-Emergence Test (Herbicidal Action)
(§1) To produce a suitable preparation of active compound, 1 part by weight of active compound is mixed with the stated amount of solvent, the stated amount of emulsifier is added and the concentrate is diluted with water to the desired concentration.
Seeds of the test plants are sown in normal soil. After 24 hours, the soil is sprayed with the preparation of active compound such that the particular amount of active compound desired is applied per unit area. The concentration of active compound in the spray liquor is chosen such that the particular amount of active compound desired is applied in 1000 litres of water per hectare.
(§2) After three weeks, the degree of damage to the plants is rated in % damage in comparison to the development of the untreated control.

weeds [2] = assay: Post-emergence test (herbicidal action); format: in vivo; settings: test plants of 5-15 cm sprayed, rated after three weeks
Method: Post-Emergence Test (Herbicidal Action)
as §1
Test plants of a height of 5-15 cm are sprayed with the preparation of active compound such that the particular amounts of active compound desired are applied per unit area. The concentration of the spray liquor is chosen such that the particular amounts of active compound desired are applied in 1000 l of water/ha.
as §2

[3] = logP determination by reversed-phase HPLC (EEC Directive 79/831 Annex V.A8), acidic range; format: physicochemical; settings: for chromatographic logP: pH 2, HPLC, C18 reversed-phase column, read-out: logP (pH 2)
Method: The logP values given in the table were determined in accordance with EEC Directive 79/831 Annex V.A8 by HPLC (High Performance Liquid Chromatography) using a reversed-phase column (C 18). Temperature: 43° C.
(a) Mobile phases for the determination in the acidic range: 0.1% phosphoric acid, acetonitrile; linear gradient from 10% acetonitrile to 90% acetonitrile—the corresponding measurement results in Table 1 are marked a).
Calibration was carried out using unbranched alkan-2-ones (having 3 to 16 carbon atoms) with known logP values (determination of the logP values by the retention times using linear interpolation between two successive alkanones).

Meloidogyne incognita = assay: Meloidogyne test (nematicidal action); format: in vivo; settings: Meloidogyne incognita egg/larvae suspension, lettuce in sand
Method: Meloidogyne Test (Nematicidal Action)
To produce a suitable preparation of active compound, 1 part by weight of active compound is mixed with the stated amounts of solvent and emulsifier, and the concentrate is diluted with water to the desired concentration.
Vessels are filled with sand, solution of active compound, Meloidogyne incognita egg/larvae suspension and lettuce seeds. The lettuce seeds germinate and the plants develop. On the roots, galls are formed.
After the desired period of time, the nematicidal action is determined in % by the formation of galls. 100% means that no galls have been found; 0% means that the number of galls on treated plants corresponds to that of the untreated control.

Structure (SMILES) | melting point | chromatographic logP [3] | herbicidal action against weeds (degree of damage) (weeds [1]) | herbicidal action against weeds (degree of damage) (weeds [2]) | logP a) (Table 1, Physical data) [3] | nematicidal action (formation of galls) (Meloidogyne incognita)
CCc1nc2c(cnn2-c2ncc(C(F)(F)F)cc2Cl)c(=O)n1C [Example 16] | – | – | strong action against weeds | strong action against weeds | (I) logP = 2.46^a) | good activity
Cn1c(C2CC2)nc2c(cnn2-c2ncc(Cl)cc2Cl)c1=O [Example 80] | – | – | strong action against weeds | strong action against weeds | (I) logP = 2.30^a) | good activity
Cc1nc2c(cnn2-c2c(Cl)cc(C(F)(F)F)cc2Cl)c(=O)n1C [Example 4, 1-(2,6-dichloro-4-trifluoromethylphenyl)-5,6-dimethyl-1,5-dihydropyrazolo[3,4-d]pyrimidin-4-one] | 195 °C | 2.69 | – | – | – | –

More lines, main results first:

melting point | chromatographic logP [3] | Structure (SMILES) | herbicidal action against weeds (degree of damage) (weeds [1]) | herbicidal action against weeds (degree of damage) (weeds [2]) | logP a) (Table 1, Physical data) [3] | nematicidal action (formation of galls) (Meloidogyne incognita)
211 °C | 2.29 | O=c1[nH]c(C2(F)CC2)nc2c1cnn2-c1ncc(C(F)(F)F)cc1Cl [Example 6, 6-(1-fluorocyclopropyl)-1-(3-chloro-5-trifluoromethylpyridin-2-yl)-1,5-dihydropyrazolo[3,4-d]pyrimidin-4-one] | – | strong action against weeds | – | –
300 °C | 2.25 | Cc1nc2c(cnn2-c2c(Cl)cc(C(F)(F)F)cc2Cl)c(=O)[nH]1 [Example 3, 1-(2,6-dichloro-4-trifluoromethylphenyl)-6-methyl-1,5-dihydropyrazolo[3,4-d]pyrimidin-4-one] | – | – | – | –
196 °C | 1.46 | NC(=O)c1cnn(-c2ncc(C(F)(F)F)cc2Cl)c1N [II-1, 5-amino-1-(3-chloro-5-trifluoromethylpyridin-2-yl)pyrazole-4-carboxamide] | – | – | – | –
